The assay deals with T1, naphthalene 1,2-dioxygenase (NDO) (Pseudomonas putida, UniProt P0A110).
T1 construct: gene ndoB; wild-type terminal oxygenase component, plasmid pDTG121 in E. coli DE3 Star, no tag mentioned; alpha3beta3 hexamer with Rieske [2Fe-2S] and mononuclear iron; with Naphthalene 1,2-dioxygenase system, small oxygenase component
T1 sequence (P0A110 1-449): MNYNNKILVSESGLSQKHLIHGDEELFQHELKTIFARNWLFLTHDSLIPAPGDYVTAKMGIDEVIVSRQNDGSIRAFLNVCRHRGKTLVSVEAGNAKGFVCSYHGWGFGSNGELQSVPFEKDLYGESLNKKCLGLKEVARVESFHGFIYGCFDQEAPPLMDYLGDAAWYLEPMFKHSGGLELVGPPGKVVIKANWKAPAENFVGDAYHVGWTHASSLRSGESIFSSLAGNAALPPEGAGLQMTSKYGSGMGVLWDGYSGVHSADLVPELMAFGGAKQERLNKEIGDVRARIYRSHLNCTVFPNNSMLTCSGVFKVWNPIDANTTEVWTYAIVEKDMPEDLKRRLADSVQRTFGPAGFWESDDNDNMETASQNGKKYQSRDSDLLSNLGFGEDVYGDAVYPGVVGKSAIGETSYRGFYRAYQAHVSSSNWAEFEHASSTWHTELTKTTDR
T1 sequence (P0A112 1-194 partner): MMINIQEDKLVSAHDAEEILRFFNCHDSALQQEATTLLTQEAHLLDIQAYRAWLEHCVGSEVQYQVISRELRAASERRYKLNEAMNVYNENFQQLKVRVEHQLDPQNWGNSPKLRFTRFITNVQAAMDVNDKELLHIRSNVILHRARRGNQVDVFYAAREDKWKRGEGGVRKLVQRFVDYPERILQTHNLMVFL
Nature of the assay: X-ray crystal structure (soaked crystal). It is filed as binding. To be noted: active site, multiple orientations; crystals pH 5.0-5.8; soaked at least two weeks.

Turning to `CCSc1ccccc1` [ethylphenylsulfide], the “X-ray crystal structure (soaked crystal)” value was “structures of phenetole, thioanisole and ethylphenylsulfide in complex with NDO were solved”.

Turning to `CCOc1ccccc1` [phenetole], the “X-ray crystal structure (soaked crystal)” value is “structures of phenetole, thioanisole and ethylphenylsulfide in complex with NDO were solved”.

For `CSc1ccccc1` [thioanisole], the “X-ray crystal structure (soaked crystal)” value was “structures of phenetole, thioanisole and ethylphenylsulfide in complex with NDO were solved”.

For the origin of these results see publication PMC5619856, “One enzyme, many reactions: structural basis for the various reactions catalyzed by naphthalene 1,2-dioxygenase” (IUCrJ, 2017).
